Results: patent publication US20240374626A1, “METHODS OF ENHANCING MILK PRODUCTION IN LACTATING MAMMALIAN SUBJECTS” (priority 2023, published 2024)

Legend:
Type in all cases: in vivo, mouse
γH2AX = experiment: Contralateral intraductal injection: γH2AX IHC in CK8+ luminal cells of MG; conditions: Hydroxyurea IDI at PD8.5 and PD12.5 vs contralateral PBS, at PD13.5
Experimental: (§1) Nulliparous analysis was performed using adult (10-12-week-old) female mice. For timed pregnancies and lactation analysis, CD-1 pregnant adult females were obtained from Charles Rivers. Embryos were examined at the time of mammary gland harvesting to confirm pregnancy state. […] Plugged mice were considered to be PD0.5 on the day of the observed plug. All females used in this study were age matched.
(§2) Mice were anesthetized with isoflurane (VetOne, 501017) Prior to intraductal injections, hair was removed from around the nipples using Nair hair remover. Injections into the duct of the nipple were performed with 33 G needles (Hamilton, 7803-05) and a volume of 40 μl per gland. Right inguinal, abdominal and thoracic glands were injected with doxorubicin (1.5 μg per gland, Cayman Chemical, 15007), nucleosides (40 μl per gland, Millipore-Sigma, ES-008-D) or Mk-1775 (50 μg per gland, Cayman Chemical, 21266), and left glands were injected with PBS or DMSO (Thermo Scientific, BP231) diluted in PBS.
(§3) Mammary gland tissue was fixed in 10% neutral buffered formalin (EMD Millipore, MR0458682) at 4° C. overnight. Fixation was quenched using 0.2% glycine (Fisher Scientific, BP381) in PBS, for 1 h at room temperature. […] Integrated density of nuclear γH2AX and pATR was quantified using ImageJ.

pATR = experiment: Contralateral intraductal injection: pATR IHC in CK8+ luminal cells of MG; conditions: Hydroxyurea IDI at PD8.5 and PD12.5 vs contralateral PBS, at PD13.5
Experimental: as §1, §2, §3

Csn2 = experiment: Contralateral intraductal injection: Csn2 expression in MGs by RT-qPCR; conditions: Hydroxyurea IDI at PD8.5 and PD12.5 vs contralateral PBS, LD2 MGs
Experimental: as §1, §2
For RNA isolation from FACS purified populations, mammary gland cell suspensions were blocked using Mouse BD Fc Block™ (BD Biosciences) for 10 min. Cells were subsequently resuspended on 1×PBS at a density of 10^7 cells/ml and stained with the following antibodies for 30 min on ice: anti-CD24 PE (Stem Cell Technologies, 60099PE.1), anti-CD29 PE-Cy7 (BioLegend, 102222), anti-CD45-APC (BioLegend,105826), Ter119-APC (BD Biosciences, 561033), CD31-ACP (BD Biosciences, 551262). Propidium iodide at a final concentration of 0.5 μg/ml was used for the discrimination of dead cells. Stromal, basal and luminal mammary populations were sorted using a BD FACS Aria II Cell Sorter. […] Total RNA quality was analyzed by agarose gel electrophoresis and quantified using an ND-1000 spectrophotometer (NanoDrop). cDNA was prepared from 500-1000 ng of total RNA using iScript cDNA synthesis kit (Bio-Rad, 1708841). Quantitative RT-qPCR was performed in triplicates using SsoAdvanced Universal SYBR Green Supermix, (Bio-Rad, 1725272). […]

MG alveoli = experiment: Contralateral intraductal injection: milk staining (IHC) integrated density per alveolus; conditions: Hydroxyurea IDI at PD8.5 and PD12.5 vs contralateral PBS, LD2 MG section
Experimental: as §1
(§4) Mice were anesthetized with isoflurane (VetOne, 501017) Prior to intraductal injections, hair was removed from around the nipples using Nair hair remover. Injections into the duct of the nipple were performed with 33 G needles (Hamilton, 7803-05) and a volume of 40 μl per gland. […]
Mammary gland tissue was fixed in 10% neutral buffered formalin (EMD Millipore, MR0458682) at 4° C. overnight. […] Incubation with secondary antibodies [(donkey anti-Rat 647 (Thermo-Invitrogen; A48272) and donkey anti-Rabbit 488 (Thermo-Invitrogen; A32790)] was performed for 2 h at room temperature. Sections were washed with 0.3% triton in PBS for 30 min (×3) at room temperature and mounted using flouromount-G (Southern Biotech, 0100-01). Image acquisition was performed using Zeiss Axio Imager Microscope. Macros were generated to quantify lumen milk integrated density per alveolus using Image J.

Wee1 = experiment: Contralateral intraductal injection: Wee1 expression in whole MG tissue by RT-qPCR; conditions: IDI of hydroxyurea into pregnant MG vs contralateral PBS
Experimental: as §1, §4
For RNA isolation from FACS purified populations, mammary gland cell suspensions were blocked using Mouse BD Fc Block™ (BD Biosciences) for 10 min. […] Total RNA quality was analyzed by agarose gel electrophoresis and quantified using an ND-1000 spectrophotometer (NanoDrop). cDNA was prepared from 500-1000 ng of total RNA using iScript cDNA synthesis kit (Bio-Rad, 1708841). Quantitative RT-qPCR was performed in triplicates using SsoAdvanced Universal SYBR Green Supermix, (Bio-Rad, 1725272). […]

CK8+ luminal cells = experiment: Contralateral intraductal injection: FACS DNA content analysis of CK8+ luminal cells; conditions: Hydroxyurea IDI at PD8.5 and PD12.5 vs contralateral PBS, by LD5

NC(=O)NO [Hydroxyurea]
γH2AX in CK8+ population (γH2AX): increased | pATR in CK8+ population (pATR): increased | Csn2 expression, RT-qPCR (Csn2): increase | increase in milk (average integrated density of milk staining among alveoli) (MG alveoli): ~15% | Wee1 expression in whole MG tissue, RT-qPCR (Wee1): upregulated | decrease in 2C CK8+ population (in the overall population) (CK8+ luminal cells): 5.5% | increase in 4C CK8+ population (in the overall population) (CK8+ luminal cells): 2% | increase in >4C CK8+ population (in the overall population) (CK8+ luminal cells): 48%
